Entries after “also recorded” stand apart in the source; their conditions may differ.

As usually defined, the IC50 is the concentration that inhibits the measured activity by half. As usually defined, the inhibition is the share of the control response that was lost under treatment.

One data set concerns the target T1, OATP2B1 (Homo sapiens, UniProt O94956).
T1 construct: expressed in transfected cells; host or cells: A431
T1 sequence (O94956 1-709): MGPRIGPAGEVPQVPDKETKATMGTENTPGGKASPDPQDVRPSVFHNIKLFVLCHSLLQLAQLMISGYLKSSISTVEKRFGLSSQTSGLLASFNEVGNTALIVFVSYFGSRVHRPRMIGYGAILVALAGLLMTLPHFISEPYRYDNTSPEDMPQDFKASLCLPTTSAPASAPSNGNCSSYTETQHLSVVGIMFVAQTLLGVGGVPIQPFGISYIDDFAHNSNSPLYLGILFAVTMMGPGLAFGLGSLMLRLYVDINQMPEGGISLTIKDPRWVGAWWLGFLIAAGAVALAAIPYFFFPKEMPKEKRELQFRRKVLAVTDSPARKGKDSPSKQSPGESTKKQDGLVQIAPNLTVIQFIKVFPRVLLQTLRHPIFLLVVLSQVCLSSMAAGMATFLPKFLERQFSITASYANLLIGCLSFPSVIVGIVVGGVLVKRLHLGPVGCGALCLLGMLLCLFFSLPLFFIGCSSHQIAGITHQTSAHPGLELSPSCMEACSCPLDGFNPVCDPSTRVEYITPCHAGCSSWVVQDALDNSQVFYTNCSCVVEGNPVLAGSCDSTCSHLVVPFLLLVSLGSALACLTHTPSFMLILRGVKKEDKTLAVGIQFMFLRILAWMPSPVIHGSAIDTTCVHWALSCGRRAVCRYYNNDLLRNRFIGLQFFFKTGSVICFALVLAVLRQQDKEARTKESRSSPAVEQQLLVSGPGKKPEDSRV
The experiment in a line: OATP2B1 uptake assay (pyranine) in overexpressing A431 cells. It counts as cell-based. The conditions noted are these: for IC50: pyranine substrate, A431 cells, pH 5.5, read-out: estimated IC50, OATP2B1. As for the experimental part:
To study the function of OATPs, we used A431 cells overexpressing OATP1A2, OATP1B1, OATP1B3, or OATP2B1 and mock-transfected A431 cells, generated as previously described, as controls. […] Briefly, OATP-overexpressing A431 cells and mock-transfected A431 cells were seeded on 96-well plates (8 × 10^4 cells/well).

The next data set addresses T2, ABCG2 (Homo sapiens, UniProt Q9UNQ0).
T2 sequence (Q9UNQ0 1-655): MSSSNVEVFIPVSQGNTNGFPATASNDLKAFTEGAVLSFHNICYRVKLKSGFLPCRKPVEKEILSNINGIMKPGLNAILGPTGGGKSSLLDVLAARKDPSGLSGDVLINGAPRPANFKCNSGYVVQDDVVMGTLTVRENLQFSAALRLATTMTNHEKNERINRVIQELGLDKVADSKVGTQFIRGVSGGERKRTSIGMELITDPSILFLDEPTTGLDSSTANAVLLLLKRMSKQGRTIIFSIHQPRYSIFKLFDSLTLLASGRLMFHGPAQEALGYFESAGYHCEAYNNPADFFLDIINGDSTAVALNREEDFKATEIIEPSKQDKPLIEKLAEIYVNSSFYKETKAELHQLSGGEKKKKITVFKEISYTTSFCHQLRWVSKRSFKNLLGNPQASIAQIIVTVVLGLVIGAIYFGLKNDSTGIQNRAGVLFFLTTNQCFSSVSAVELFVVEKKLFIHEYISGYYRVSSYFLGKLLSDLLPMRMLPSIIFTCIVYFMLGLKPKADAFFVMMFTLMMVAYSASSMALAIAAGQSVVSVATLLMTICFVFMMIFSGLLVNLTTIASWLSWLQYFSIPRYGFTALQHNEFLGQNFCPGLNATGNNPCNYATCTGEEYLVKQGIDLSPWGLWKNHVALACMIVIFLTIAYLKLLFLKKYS
The experiment in a line: ABCG2 vesicular transport (lucifer yellow), HEK293 inverted membrane vesicles. The conditions noted are these: up to 200 μM.

Procedure for ABCG2: ABCB1, ABCG2, and ABCC4 HEK293 membrane vesicles were prepared by Solvo Biotechnology, Budapest. The total protein content of membrane vesicle preparations was determined using the Lowry quantitation method and 30 µg (ABCG2) or 50 µg (ABCB1 and ABCC4) total protein/sample was used for the measurements. For ABCG2 vesicular transport, the fluorescent probe Lucifer yellow (LY) was present in the mixture at 5 μM final concentration. […] Uptake of the probe substrates into the inverted membrane vesicles was measured at 37 °C (ABCG2, ABCB1) or at 32 °C (ABCC4) for 10 min (ABCG2), 5 min (ABCB1), or 1.5 min (ABCC4) in the presence or absence of 4 mM Mg-ATP, in 75 μL final volume of the media (0.04 M MOPS-TRIS pH 7.2, 56 mM KCl, 6 mM MgCl2). The known reference inhibitors of the transporters (1 µM Ko143 for ABCG2, 50 µM Verapamil for ABCB1, and 150 µM MK571 for ABCC4) served as controls. Each test compound was dissolved in DMSO and a 0.75 µL volume was added to the samples. A DMSO solvent control was used in each experiment. The transport was stopped by the addition of ice-cold wash buffer to the samples, then rapidly filtered (MSFBN6B, Millipore, Burlington, MA, USA). Filters were washed with ice-cold wash buffer (0.04 M MOPS-TRIS pH 7.2, 70 mM KCl). For LY, vesicles retained on the filters were dissolved in 10% SDS and transferred into a 96-well microplate. After the addition of DMSO as a stabilizer, fluorescence was measured using a plate reader at 427/535 nm (Victor X3 Enspire Perkin-Elmer, Waltham, MA, USA). When radiolabeled compounds were used as substrates, radioactivity retained on the filter was measured by liquid scintillation counting in Optiphase HiSafe liquid (Perkin Elmer MicroBeta2 liquid scintillation counter, Perkin Elmer, Waltham, MA, USA). ATP-dependent transport was calculated by subtracting the values obtained in the presence of AMP from those obtained in the presence of ATP.

As for `O=c1nc(NO)ccn1[C@@H]1O[C@H](CO)[C@@H](O)[C@H]1O` [EIDD-1931], the “maximum inhibition of OATP2B1” value at OATP2B1 (at 200 μM, pyranine) is given as 20–40%. In addition, the IC50 on OATP2B1 was > 200 µM. Also, the “effect on ABCG2 lucifer yellow vesicular transport” value (shortened to “effect”) on ABCG2 is “neither the function of ABCB1 nor that of ABCG2 was altered”.

With `CC(C)C(=O)OC[C@H]1O[C@@H](n2ccc(NO)nc2=O)[C@H](O)[C@@H]1O` [EIDD-2801, Molnupiravir], the inhibition at 10 min, 200 µM on OATP2B1 (human, A431 cells overexpressing OATP2B1, pH 5.5, probe pyranine (20 μM), at 200 μM, pyranine, read-out: maximum inhibition of OATP2B1) lay in the range of 20 to 40%. Further, the IC50 on OATP2B1 was > 200 µM. At ABCG2, the “effect” value is “neither the function of ABCB1 nor that of ABCG2 was altered”.

Turning to `CC(C)(C)[C@H](NC(=O)C(F)(F)F)C(=O)N1C[C@H]2[C@@H]([C@H]1C(=O)N[C@H](C#N)C[C@@H]1CCNC1=O)C2(C)C` [Nirmatrelvir], the “inhibition of OATP2B1 by Nirmatrelvir alone” value at OATP2B1 (at 20 μM) is “only a minor inhibitory effect”. On ABCG2, the “effect” value is on record as “not affected; also recorded: negligible effect”.

The record behind these values is PMC10379611 (International Journal of Molecular Sciences, 2023).
